Patent US20050245399A1, “Pyrazole derivatives as herbicidal compositions containing them” (ISHIHARA SANGYO KAISHA, LTD., priority 2004, published 2005)

Tests used:
Format in all cases: in vivo
[1] = system: crabgrass (Digitaria sanguinalis L.): DIGSA; test: Test Example 1 pre-emergence herbicidal activity, DIGSA; details: Rate 63 g a.i./ha, visually observed 20th to 23rd day after application
In short: (§1)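 Plants were sown in pots of upland field soil and treated the following day, before emergence, with the formulated compound sprayed in 500 L/ha water. Herbicidal effect was judged by eye 20–23 days later on a 0–100% scale.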

[2] = system: green foxtail (Setaria viridis L.): SETVI; test: Test Example 1 pre-emergence herbicidal activity, SETVI; details: Rate 63 g a.i./ha, visually observed 20th to 23rd day after application
In short: as §1

[3] = system: redroot pigweed (Amaranthus retroflexus L.): AMARE; test: Test Example 1 pre-emergence herbicidal activity, AMARE; details: Rate 63 g a.i./ha, visually observed 20th to 23rd day after application
In short: as §1

[4] = system: prickly sida (Sida spinosa L.): SEDSP; test: Test Example 1 pre-emergence herbicidal activity, SIDSP; details: Rate 63 g a.i./ha, visually observed 20th to 23rd day after application
In short: as §1

[5] = system: wheat (Triticum aestivum L.): TRZAX; test: Test Example 1 pre-emergence herbicidal activity, TRZAX; details: Rate 63 g a.i./ha, visually observed 20th to 23rd day after application
In short: as §1

[6] = system: corn (Zea mays L.): ZEAMX; test: Test Example 1 pre-emergence herbicidal activity, ZEAMX; details: Rate 63 g a.i./ha, visually observed 20th to 23rd day after application
In short: as §1

[7] = system: soybean (Glycine max Merr.): GLXMA; test: Test Example 1 pre-emergence herbicidal activity, GLXMA; details: Rate 63 g a.i./ha, visually observed 20th to 23rd day after application
In short: as §1

[8] = system: crabgrass (Digitaria sanguinalis L.), DIGSA; test: Test Example 2 post-emergence (foliage treatment) herbicidal activity, DIGSA; details: 63 g a.i./ha
In short: (§2)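 Seeds are sown in upland soil in pots, and seedlings are sprayed once they reach set leaf stages (pigweed 0.1-1.5, barnyardgrass 1.1-2.1, crabgrass 1.0-2.0, rice 1.0-2). The formulated compound goes on in 500 L/ha water containing 0.1% (v/v) spreader. Effect is judged by eye 20-23 days on, as percent control.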

[9] = system: green foxtail (Setaria viridis L.), SETVI; test: Test Example 2 post-emergence (foliage treatment) herbicidal activity, SETVI; details: 63 g a.i./ha
In short: (§3)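 Each species was evaluated for growth suppression by eye, 0% matching untreated and 100% meaning death, some 20 to 23 days after a single post-emergence foliar treatment applied in 500 L/ha of water carrying 0.1% (v/v) agricultural spreader.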

[10] = system: redroot pigweed (Amaranthus retroflexus L.), AMARE; test: Test Example 2 post-emergence (foliage treatment) herbicidal activity, AMARE; details: 63 g a.i./ha
In short: as §2

[11] = system: prickly sida (Sida spinosa L.), SIDSP; test: Test Example 2 post-emergence (foliage treatment) herbicidal activity, SIDSP; details: 63 g a.i./ha
In short: as §3

[12] = system: velvetleaf (Abutilon theophrasti), ABUTH; test: Test Example 2 post-emergence (foliage treatment) herbicidal activity, ABUTH; details: 63 g a.i./ha
In short: as §3

[13] = system: common cocklebur (Xanthium strumarium L.), XANST; test: Test Example 2 post-emergence (foliage treatment) herbicidal activity, XANST; details: 63 g a.i./ha
Text: Upland field soil was put into a 1/170,000 ha pot, and seeds of various plants were sown. Then, when the plants reached predetermined leaf stages {1. barnyardgrass (Echinochloa crus-galli L.), ECHCG: 1.1-2.1 leaf stage, 2. crabgrass (Digitaria sanguinalis L.), DIGSA: 1.0-2.0 leaf stage, 3. green foxtail (Setaria viridis L.), SETVI: 1.0-2.2 leaf stage, 4. redroot pigweed (Amaranthus retroflexus L.), AMARE: 0.1-1.5 leaf stage, 5. prickly sida (Sida spinosa L.), SIDSP: 0.1-0.6 leaf stage, 6. velvetleaf (Abutilon theophrasti), ABUTH: 0.1-0.6 leaf stage, 7. common cocklebur (Xanthium strumarium L.), XANST: 0.1 leaf stage, 8. rice (Oryza sativa L.), ORYSA; 1.0-2 leaf stage, 9. wheat (Triticum aestivum L.), TRZAX: 2.3-3.5 leaf stage, 10. corn (Zea mays L.), ZEAMXN 2.1-2.6 leaf stage, 11. soybean (Glycine max Merr.), GLXMA: primary leaf stage}, a wettable powder or emulsifiable concentrate having the compound of the present invention formulated in accordance with a usual formulation method, was weighed so that the active ingredient would be a predetermined amount, and diluted with water in an amount of 500 L/ha. To the diluted solution, 0.1% (v/v) of an agricultural spreader was added. The herbicide adjusted was applied by a small size sprayer for foliage treatment. On the 20th to 23rd day after the application of the herbicide, the growth of the respective plants was visually observed, and the herbicidal effects were evaluated by growth controlling degrees (%) ranging from 0 (equivalent to the untreated control) to 100 (complete kill), whereby the results shown in Table 5, were obtained. Compound Nos. in Table 5 correspond to Compound Nos. in Table 1 and 2 given hereinbefore.

[14] = system: wheat (Triticum aestivum L.), TRZAX; test: Test Example 2 post-emergence (foliage treatment) herbicidal activity, TRZAX; details: 63 g a.i./ha
In short: as §3

[15] = system: corn (Zea mays L.), ZEAMX; test: Test Example 2 post-emergence (foliage treatment) herbicidal activity, ZEAMX; details: 63 g a.i./ha
In short: as §3

[16] = system: soybean (Glycine max Merr.), GLXMA; test: Test Example 2 post-emergence (foliage treatment) herbicidal activity, GLXMA; details: 63 g a.i./ha
In short: as §3

| SMILES | Pre-emergence Herbicidal Activity DIGSP (growth controlling degree) [1] [%] | Pre-emergence Herbicidal Activity SETVI (growth controlling degree) [2] [%] | Pre-emergence Herbicidal Activity AMARE (growth controlling degree) [3] [%] | Pre-emergence Herbicidal Activity SIDSP (growth controlling degree) [4] [%] | Pre-emergence Herbicidal Activity TRZAX (growth controlling degree) [5] [%] | Pre-emergence Herbicidal Activity ZEAMX (growth controlling degree) [6] [%] | Pre-emergence Herbicidal Activity GLXMA (growth controlling degree) [7] [%] | growth controlling degree, DIGSP [8] [%] | growth controlling degree, SETVI [9] [%] | growth controlling degree, AMARE [10] [%] | growth controlling degree, SIDSP [11] [%] | growth controlling degree, ABUTH [12] [%] | growth controlling degree, XANST [13] [%] | growth controlling degree, TRZAX [14] [%] | growth controlling degree, ZEAMX [15] [%] | growth controlling degree, GLXMA [16] [%] |
| --- | --- | --- | --- | --- | --- | --- | --- | --- | --- | --- | --- | --- | --- | --- | --- | --- |
| COc1c(Cl)cc(F)c(-c2nn(C)c(OC(F)F)c2Cl)c1N(C=O)CC(=O)c1ccccc1 [Compound 1-12] | 30 | 95 | 100 | 100 | 20 | 10 | 40 | 30 | 95 | 100 | 100 | 100 | 50 | 20 | 10 | 40 |
| CNc1c(OC)c(Cl)cc(F)c1-c1nn(C)c(OC(F)F)c1Cl [Compound 1-58] | 100 | 100 | 100 | 100 | 10 | 0 | 20 | 100 | 100 | 100 | 100 | 100 | 100 | 60 | 100 | 95 |
| COc1c(Cl)cc(F)c(-c2nn(C)c(OC(F)F)c2Cl)c1N(C=O)CC(C)=O [Compound 1-14] | 98 | 100 | 100 | 100 | 40 | 40 | 60 | 98 | 100 | 100 | 100 | 100 | 100 | 40 | 40 | 60 |
